Data reported in PMC12416277, “Phytochemical alkaloids orchestrate immunometabolism against viral infections” (National Science Review, 2025).
Read-outs that look alike come from different tables or passages of the source.

Key:
[1] = cited from earlier work
VSV [2] = assay type: cell-based, vesicular stomatitis virus (VSV)
NPC1 [3] = molecular target: T1, NPC1 (Homo sapiens, UniProt O15118); test: Drug affinity responsive target stability (DARTS); conditions: 150 µM, pronase digestion
T1 sequence (O15118 23-1278): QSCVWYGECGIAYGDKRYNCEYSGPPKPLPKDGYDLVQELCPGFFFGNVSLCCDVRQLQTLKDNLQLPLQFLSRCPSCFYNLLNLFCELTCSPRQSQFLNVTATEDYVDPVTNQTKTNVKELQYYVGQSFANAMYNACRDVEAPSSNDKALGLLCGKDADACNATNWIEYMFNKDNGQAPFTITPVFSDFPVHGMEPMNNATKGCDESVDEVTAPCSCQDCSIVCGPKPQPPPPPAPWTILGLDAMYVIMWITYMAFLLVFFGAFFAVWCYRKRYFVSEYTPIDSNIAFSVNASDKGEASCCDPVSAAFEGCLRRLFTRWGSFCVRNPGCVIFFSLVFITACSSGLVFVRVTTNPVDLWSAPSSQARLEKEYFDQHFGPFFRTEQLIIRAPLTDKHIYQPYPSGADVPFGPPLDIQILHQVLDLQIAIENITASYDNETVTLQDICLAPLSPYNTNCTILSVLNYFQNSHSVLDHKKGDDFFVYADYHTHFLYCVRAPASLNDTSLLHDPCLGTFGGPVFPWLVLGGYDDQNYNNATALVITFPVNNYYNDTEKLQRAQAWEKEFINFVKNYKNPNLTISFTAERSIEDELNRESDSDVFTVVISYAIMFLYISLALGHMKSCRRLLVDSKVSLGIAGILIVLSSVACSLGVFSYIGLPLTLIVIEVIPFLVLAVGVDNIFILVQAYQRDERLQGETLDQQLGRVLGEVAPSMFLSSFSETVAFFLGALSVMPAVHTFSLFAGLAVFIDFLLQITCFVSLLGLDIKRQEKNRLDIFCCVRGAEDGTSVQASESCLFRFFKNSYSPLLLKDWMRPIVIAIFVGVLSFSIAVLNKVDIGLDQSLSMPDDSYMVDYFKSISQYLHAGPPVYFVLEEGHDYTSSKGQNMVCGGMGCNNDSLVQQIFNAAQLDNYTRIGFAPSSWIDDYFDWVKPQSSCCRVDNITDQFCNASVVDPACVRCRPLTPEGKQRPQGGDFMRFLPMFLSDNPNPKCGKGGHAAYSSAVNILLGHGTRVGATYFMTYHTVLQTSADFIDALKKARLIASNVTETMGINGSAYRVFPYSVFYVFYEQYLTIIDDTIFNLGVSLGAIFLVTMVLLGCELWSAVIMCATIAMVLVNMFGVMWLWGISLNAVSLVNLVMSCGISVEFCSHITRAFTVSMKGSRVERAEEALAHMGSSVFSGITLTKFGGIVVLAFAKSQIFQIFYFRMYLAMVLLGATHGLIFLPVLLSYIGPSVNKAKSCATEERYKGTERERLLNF

H1N1 [4] = test: Time-of-drug-addition assay, H1N1 in A549 cells; assay type: cell-based, influenza virus A (H1N1); conditions: pre-treatment, co-treatment and post-treatment
NPC1 [5] = molecular target: T1, NPC1; test: Bio-Tet streptavidin pull-down from cell lysates; assay type: binding
H1N1 [6] = test: Antiviral effect in normal/serum-free medium during H1N1 infection of A549 cells; assay type: cell-based, influenza virus A (H1N1); conditions: serum-free conditions
NPC1 [7] = molecular target: T1, NPC1; test: Cellular thermal shift assay (CETSA); conditions: 150 µM, HepG2 and A549 lysates
VSV [8] = assay type: cell-based, vesicular stomatitis virus (VSV); conditions: Sting-/- BMDM cells vs WT
VSV [9] = assay type: cell-based, vesicular stomatitis virus (VSV); remark: listed apart in the source
H1N1 [10] = test: Dose-response of infectivity, H1N1 in L929 cells; assay type: cell-based; conditions: Influenza A virus
A549 cells = test: Transcriptome analysis (RNA-seq, GO, GSEA) of compound-treated A549 cells; conditions: WT A549 cells, compared among Tet, Fan, Cep, Bbm
[11] = tested on: STING-dependent antiviral immune pathway; assay type: cell-based
NPC1 [12] = molecular target: T1, NPC1; assay type: binding; conditions: read-out: SPR KD
H1N1 [13] = test: In vivo H1N1 infection mouse model; design: species or system C57/BL6J mice; conditions: mice
[14] = H1N1, intranasal administration

COc1ccc2cc1Oc1ccc(cc1)C[C@H]1c3cc(c(OC)cc3CCN1C)Oc1c(OC)c(OC)cc3c1[C@H](C2)N(C)CC3 [Tet, tetrandrine]
systemic clearance [1]: low
volume of distribution [1]: high
antiviral effect against VSV (VSV [2]): diminished
NPC1 stability (DARTS) (NPC1 [3]): enhanced NPC1 stability against degradation
H1N1 infection (H1N1 [4]): effectively suppressed
competition of Bio-Tet/NPC1 interaction (NPC1 [5]): competitively inhibited
antiviral effect on H1N1 entry (H1N1 [6]): diminished
NPC1 stability (CETSA) (NPC1 [7]): enhanced NPC1 stability against degradation
antiviral effect against VSV (VSV [8]): markedly reduced
VSV attachment (VSV [9]): without affecting virus attachment
VSV infection during entry or post-entry stages (VSV [9]): inhibited
VSV-eGFP entry into lysosomes (VSV [9]): blocked
EC50 (H1N1 [10]): 0.541 µM
expression of antiviral immune-related genes (A549 cells): higher expression
IFNB1 and ISGs gene expression [11]: significantly increased
Kd (NPC1 [12]): 22.2 µM
NP protein expression in lung tissue (H1N1 [13]; H1N1): inhibited
alveolar damage and inflammatory infiltrations in lung tissues (H&E) (H1N1 [13]; H1N1): significantly alleviated
body weight recovery (H1N1 [13]; [14]): expedited body weight recovery
survival rates (H1N1 [13]; [14]): improved survival rates
